Data taken from patent US20120101167A1, “Treatment of ocular and cerebral ischemia” (priority 2010, published 2012).

Tests used:
glaucomatous monkeys = experiment: IOP and PBF responses in glaucomatous monkeys to a single topical unilateral application; type: in vivo, monkey; conditions: single topical unilateral 0.05 mg, four glaucomatous monkeys
Procedure: (§1) 1. The Intraocular pressure and pulse form. The Langham pneumatic digitized tonometer was used to make continuous recordings of the intraocular pressure and its pulsatile character. This recording system provides the steady state IOP and the form of the IOP pulse with an accuracy equal to a manometric recording. The pulsatile ocular blood flow is evaluated from the amplitude of the individual pulses using the known pressure/volume relation of living human eyes. Langham, M. E., Farrell, R. A., O'Brien V., Silver, D. M., Non-Invasive Measurement of Pulsatile Ocular Blood Flow in the Human Eye (Eds., Lambrou G. N., Greve E.) pp. 93-99; Kugler and Ghedini, Amsterdam (1989).

conscious rabbits = experiment: Time course of IOP and ocular pulsatile blood flow in conscious rabbits after single topical application; type: in vivo, rabbit; conditions: six conscious rabbits; for Intraocular Pressure (IOP), Treated / Pulsatile Blood flow, Treated: treated eye, single topical 0.025% aqueous solution pH 7.40; for Intraocular Pressure (IOP), Difference / Pulsatile Blood flow, Difference: treated minus control eye, single topical 0.025% solution
Procedure: as §1

healthy human subjects = experiment: Steady state IOP and pulsatile blood flow in healthy human subjects given repeated topical unilateral applications; type: in vivo; conditions: five healthy human subjects; for Intraocular Pressure (IOP), Treated / Pulsatile Blood flow, Treated: treated eye, 30 μl 0.025% solution topical unilateral at 0, 12, ... 96 hr; for Intraocular Pressure (IOP), Difference / Pulsatile Blood flow, Difference: treated minus control eye, 0.025% solution every 12 hr
Procedure: as §1

CN[C@H](C)[C@@H](O)c1ccc(OC(=O)C(C)(C)C)c(OC(=O)C(C)(C)C)c1 (single isomer, unassigned) [(+) erythro isomer of DPαMeEp, reference compound]
Intraocular Pressure (IOP), Treated (glaucomatous monkeys; Table 5, treated eye, 0 hr): 36.8 ± 1.94 mmHg | Pulsatile Blood flow, Treated (glaucomatous monkeys; Table 5, treated eye, 0 hr): 564 ± 16 µL/min | Intraocular Pressure (IOP), Treated (glaucomatous monkeys; Table 5, treated eye, 1 hr): 36.3 ± 3.17 mmHg | Pulsatile Blood flow, Treated (glaucomatous monkeys; Table 5, treated eye, 1 hr): 555 ± 26 µL/min | Intraocular Pressure (IOP), Treated (glaucomatous monkeys; Table 5, treated eye, 3 hr): 35.0 ± 2.28 mmHg | Pulsatile Blood flow, Treated (glaucomatous monkeys; Table 5, treated eye, 3 hr): 575 ± 22 µL/min | Intraocular Pressure (IOP), Treated (glaucomatous monkeys; Table 5, treated eye, 6 hr): 36.8 ± 3.31 mmHg | Pulsatile Blood flow, Treated (glaucomatous monkeys; Table 5, treated eye, 6 hr): 564 ± 23 µL/min | Intraocular Pressure (IOP), Treated (glaucomatous monkeys; Table 5, treated eye, 24 hr): 34.6 ± 2.76 mmHg | Pulsatile Blood flow, Treated (glaucomatous monkeys; Table 5, treated eye, 24 hr): 549 ± 27 µL/min

CN[C@@H](C)[C@H](O)c1ccc(OC(=O)C(C)(C)C)c(OC(=O)C(C)(C)C)c1 (single isomer, unassigned) [(−) erythro isomer of DPαMeEp, dipivalyl α MeEp]
Intraocular Pressure (IOP), Treated (conscious rabbits; 0 hr): 19.4 ± 0.7 mmHg | Pulsatile Blood flow, Treated (conscious rabbits; 0 hr): 651 ± 28 µL/min | Intraocular Pressure (IOP), Treated (conscious rabbits; 1 hr): 13.0 ± 0.5 mmHg | Pulsatile Blood flow, Treated (conscious rabbits; 1 hr): 880 ± 32 µL/min | Intraocular Pressure (IOP), Treated (conscious rabbits; 3 hr): 12.8 ± 0.4 mmHg | Pulsatile Blood flow, Treated (conscious rabbits; 3 hr): 957 ± 33 µL/min | Intraocular Pressure (IOP), Treated (conscious rabbits; 5 hr): 13.8 ± 0.4 mmHg | Pulsatile Blood flow, Treated (conscious rabbits; 5 hr): 963 ± 30 µL/min | Intraocular Pressure (IOP), Treated (conscious rabbits; 12 hr): 15.6 ± 0.6 mmHg | Pulsatile Blood flow, Treated (conscious rabbits; 12 hr): 924 ± 29 µL/min | Intraocular Pressure (IOP), Treated (conscious rabbits; 24 hr): 19.7 ± 0.7 mmHg | Pulsatile Blood flow, Treated (conscious rabbits; 24 hr): 682 ± 41 µL/min | Intraocular Pressure (IOP), Difference (conscious rabbits; 0 hr): −0.1 ± 0.1 mmHg | Pulsatile Blood flow, Difference (conscious rabbits; 0 hr): 3 ± 3 µL/min | Intraocular Pressure (IOP), Difference (conscious rabbits; 1 hr): −6.4 ± 0.3 mmHg | Pulsatile Blood flow, Difference (conscious rabbits; 1 hr): 255 ± 24 µL/min | Intraocular Pressure (IOP), Difference (conscious rabbits; 3 hr): −6.5 ± 0.4 mmHg | Pulsatile Blood flow, Difference (conscious rabbits; 3 hr): 332 ± 29 µL/min | Intraocular Pressure (IOP), Difference (conscious rabbits; 5 hr): −5.3 ± 0.4 mmHg | Pulsatile Blood flow, Difference (conscious rabbits; 5 hr): 328 ± 24 µL/min | Intraocular Pressure (IOP), Difference (conscious rabbits; 12 hr): −3.9 ± 0.3 mmHg | Pulsatile Blood flow, Difference (conscious rabbits; 12 hr): 290 ± 31 µL/min | Intraocular Pressure (IOP), Difference (conscious rabbits; 24 hr): 0 ± 0 mmHg | Pulsatile Blood flow, Difference (conscious rabbits; 24 hr): 10 ± 4 µL/min | Intraocular Pressure (IOP), Treated (healthy human subjects; 0 hr): 15.5 ± 0.5 mmHg | Pulsatile Blood flow, Treated (healthy human subjects; 0 hr): 675 ± 35 µL/min | Intraocular Pressure (IOP), Treated (healthy human subjects; 2 hr): 12.0 ± 0.7 mmHg | Pulsatile Blood flow, Treated (healthy human subjects; 2 hr): 818 ± 30 µL/min | Intraocular Pressure (IOP), Treated (healthy human subjects; 6 hr): 13.2 ± 9.2 mmHg | Pulsatile Blood flow, Treated (healthy human subjects; 6 hr): 802 ± 17 µL/min | Intraocular Pressure (IOP), Treated (healthy human subjects; 12 hr): 14.0 ± 0.4 mmHg | Pulsatile Blood flow, Treated (healthy human subjects; 12 hr): 780 ± 15 µL/min | Intraocular Pressure (IOP), Treated (healthy human subjects; 24 hr): 15.0 ± 0.4 mmHg | Pulsatile Blood flow, Treated (healthy human subjects; 24 hr): 758 ± 30 µL/min | Intraocular Pressure (IOP), Treated (healthy human subjects; 28 hr): 12.4 ± 0.5 mmHg | Pulsatile Blood flow, Treated (healthy human subjects; 28 hr): 790 ± 34 µL/min | Intraocular Pressure (IOP), Treated (healthy human subjects; 52 hr): 12.8 ± 0.4 mmHg | Pulsatile Blood flow, Treated (healthy human subjects; 52 hr): 764 ± 14 µL/min | Intraocular Pressure (IOP), Treated (healthy human subjects; 78 hr): 11.8 ± 0.5 mmHg | Pulsatile Blood flow, Treated (healthy human subjects; 78 hr): 832 ± 24 µL/min | Intraocular Pressure (IOP), Treated (healthy human subjects; 100 hr): 12.7 ± 0.4 mmHg | Pulsatile Blood flow, Treated (healthy human subjects; 100 hr): 812 ± 15 µL/min | Intraocular Pressure (IOP), Difference (healthy human subjects; 0 hr): 0 ± 0.1 mmHg | Pulsatile Blood flow, Difference (healthy human subjects; 0 hr): 4 ± 6 µL/min | Intraocular Pressure (IOP), Difference (healthy human subjects; 2 hr): −3.4 ± 3.4 mmHg | Pulsatile Blood flow, Difference (healthy human subjects; 2 hr): 127 ± 27 µL/min | Intraocular Pressure (IOP), Difference (healthy human subjects; 6 hr): −2.6 ± 2.6 mmHg | Pulsatile Blood flow, Difference (healthy human subjects; 6 hr): 131 ± 14 µL/min | Intraocular Pressure (IOP), Difference (healthy human subjects; 12 hr): −1.8 ± 1.1 mmHg | Pulsatile Blood flow, Difference (healthy human subjects; 12 hr): 104 ± 12 µL/min | Intraocular Pressure (IOP), Difference (healthy human subjects; 24 hr): −0.6 ± 0.3 mmHg | Pulsatile Blood flow, Difference (healthy human subjects; 24 hr): 82 ± 7 µL/min | Intraocular Pressure (IOP), Difference (healthy human subjects; 28 hr): 2.9 ± 0.4 mmHg | Pulsatile Blood flow, Difference (healthy human subjects; 28 hr): 132 ± 19 µL/min | Intraocular Pressure (IOP), Difference (healthy human subjects; 52 hr): −2.7 ± 0.6 mmHg | Pulsatile Blood flow, Difference (healthy human subjects; 52 hr): 110 ± 24 µL/min | Intraocular Pressure (IOP), Difference (healthy human subjects; 78 hr): −3.7 ± 0.4 mmHg | Pulsatile Blood flow, Difference (healthy human subjects; 78 hr): 156 ± 8 µL/min | Intraocular Pressure (IOP), Difference (healthy human subjects; 100 hr): 3.3 ± 0.4 mmHg | Pulsatile Blood flow, Difference (healthy human subjects; 100 hr): 138 ± 8.5 µL/min | Intraocular Pressure (IOP), Treated (glaucomatous monkeys; Table 4, treated glaucomatous eye, 0 hr): 33.4 ± 1.94 mmHg | Intraocular Pressure (IOP), Treated (glaucomatous monkeys; Table 4, treated glaucomatous eye, 1 hr): 26.3 ± 3.17 mmHg | Intraocular Pressure (IOP), Treated (glaucomatous monkeys; Table 4, treated glaucomatous eye, 3 hr): 21.7 ± 3.77 mmHg | Intraocular Pressure (IOP), Treated (glaucomatous monkeys; Table 4, treated glaucomatous eye, 8 hr): 21.9 ± 3.31 mmHg | Intraocular Pressure (IOP), Treated (glaucomatous monkeys; Table 4, treated glaucomatous eye, 10 hr): 22.1 ± 2.76 mmHg | Intraocular Pressure (IOP), Treated (glaucomatous monkeys; Table 4, treated glaucomatous eye, 12 hr): 21.8 ± 2.61 mmHg | Intraocular Pressure (IOP), Treated (glaucomatous monkeys; Table 4, treated glaucomatous eye, 24 hr): 24.6 ± 2.37 mmHg | Intraocular Pressure (IOP), Treated (glaucomatous monkeys; Table 4, treated glaucomatous eye, 26 hr): 26.3 ± 2.16 mmHg | Intraocular Pressure (IOP), Treated (glaucomatous monkeys; Table 4, treated glaucomatous eye, 28 hr): 25.0 ± 2.09 mmHg | Intraocular Pressure (IOP), Treated (glaucomatous monkeys; Table 4, treated glaucomatous eye, 30 hr): 25.0 ± 2.28 mmHg | Intraocular Pressure (IOP), Treated (glaucomatous monkeys; Table 4, treated glaucomatous eye, 36 hr): 27.3 ± 2.09 mmHg
